Target: human RAF1 (Homo sapiens (Human), UniProt P04049)
Experiment: Protein kinase assay (radiometric 33P-ATP, MEK1 (K97R) substrate)
Assay type: biochemical
Conditions: human MEK1 (K97R) substrate 3 micromolar, ATP 10 micromolar, 10-dose IC50 mode; read-out: RAF-1 IC50
Experimental: Protein kinase assay: Assay platform was used to measure kinase/inhibitor interactions as described previously (Anastassiadis et al., 2011). In brief, for each reaction, kinase and substrate were mixed in a buffer containing 20 mM HEPES (pH 7.5), 10 mM MgCl2, 1 mM EGTA, 0.02% Brij35, 0.02 mg/mL BSA, 0.1 mM Na3VO4, 2 mM DTT, and 1% DMSO. All compounds were solubilized in DMSO. Compounds were then added to each reaction mixture via acoustic dispense using an ECHO 550 nanoliter dispenser. For human RAF1 testing, human MEK1 (K97R) was used as a substrate at a concentration of 3 micromolar, with a final ATP concentration of 10 micromolar. For human BRAF testing, human MEK1 (K97R) was used as a substrate at 1 micromolar concentration, with a final ATP concentration of 25 micromolar. […] After a 20-min incubation, ATP (Sigma-Aldrich, St. Louis, Mo. 63178) and [g33P] ATP (specific activity 10 microCi/microliter) purchased at PerkinElmer (Boston, Mass., 02118 Cat #BLU 003H250UC) were added at a final total concentration of 10 mM. Reactions were carried out at room temperature for 2 hr and spotted onto P81 ionexchange cellulose chromatography paper (Reaction Biology). Filter paper was washed in 0.75% phosphoric acid to remove unincorporated ATP. The percent remaining kinase activity relative to a vehicle-containing (DMSO) kinase reaction was calculated for each kinase/inhibitor pair. IC50 values were calculated using Prism 5 (GraphPad).

Sequence of human RAF1 (P04049 whole entry): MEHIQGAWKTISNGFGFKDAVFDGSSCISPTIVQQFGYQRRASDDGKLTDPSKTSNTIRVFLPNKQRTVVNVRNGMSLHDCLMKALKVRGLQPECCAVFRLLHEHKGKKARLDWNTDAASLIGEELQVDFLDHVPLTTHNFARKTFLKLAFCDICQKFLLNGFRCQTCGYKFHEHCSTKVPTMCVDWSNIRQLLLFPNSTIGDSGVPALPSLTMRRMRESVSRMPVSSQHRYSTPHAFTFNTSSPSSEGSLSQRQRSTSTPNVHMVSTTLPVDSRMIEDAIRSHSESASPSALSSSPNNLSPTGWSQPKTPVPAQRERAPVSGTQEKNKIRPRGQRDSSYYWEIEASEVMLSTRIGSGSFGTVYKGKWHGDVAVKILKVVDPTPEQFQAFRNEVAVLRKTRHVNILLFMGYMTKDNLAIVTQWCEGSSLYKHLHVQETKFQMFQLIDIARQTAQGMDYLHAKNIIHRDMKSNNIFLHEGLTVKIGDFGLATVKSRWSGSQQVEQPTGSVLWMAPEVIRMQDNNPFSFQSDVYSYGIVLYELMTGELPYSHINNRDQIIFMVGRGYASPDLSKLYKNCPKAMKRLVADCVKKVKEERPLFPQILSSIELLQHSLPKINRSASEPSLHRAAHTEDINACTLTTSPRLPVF

Q: How did the IC50 turn out when `CNc1ncc2cc(-c3cc(NC(=O)N4CC[C@@H](OC(F)(F)F)C4)ccc3C)c(C#N)nc2n1` [Example 78, (3R)—N-[3-[7-cyano-2-(methylamino)pyrido[2,3-d]pyrimidin-6-yl]-4-methylphenyl]-3-(trifluoromethoxy)pyrrolidine-1-carboxamide] was run?
A: ≤ 10 nM

Q: How did the IC50 turn out when `CNc1ncc2cc(-c3cc(NC(=O)c4ccnc(C(F)(F)F)c4)ccc3C)c(Cl)nc2n1` [Example 64, N-[3-[7-chloro-2-(methylamino)pyrido[2,3-d]pyrimidin-6-yl]-4-methylphenyl]-2-(trifluoromethyl) pyridine-4-carboxamide] was run?
A: ≤ 10 nM

Q: With `CNc1ncc2cc(-c3cc(NC(=O)N4CCO[C@@H](C(F)(F)F)C4)c(F)cc3C)cnc2n1` [Example 62, (2R)-N-[2-fluoro-4-methyl-5-[2-(methylamino)pyrido[2,3-d]pyrimidin-6-yl]phenyl]-2-(trifluoromethyl)morpholine-4-carboxamide] as the molecule, how does the IC50 read?
A: ≤ 10 nM

Q: With `CNc1ncc2cc(-c3cc(NC(=O)c4cccc(C(F)(F)F)c4)cnc3C)cnc2n1` [Example 45, N-(6-methyl-5-(2-(methylamino)pyrido[2,3-d]pyrimidin-6-yl)pyridin-3-yl)-3-(trifluoromethyl)benzamide] as the molecule, how does the IC50 read?
A: ≤ 10 nM

Q: With `CNc1ncc2cc(-c3cc(NC(=O)N4CC[C@@H](CC(F)(F)F)C4)ccc3C)c(C)nc2n1` [Example 20, (S)-N-(4-methyl-3-(7-methyl-2-(methylamino)pyrido[2,3-d]pyrimidin-6-yl)phenyl)-3-(2,2,2-trifluoroethyl)pyrrolidine-1-carboxamide] as the molecule, how does the IC50 read?
A: ≤ 10 nM

Q: Which IC50 does the source give for `CNc1ncc2cc(-c3cc(NC(=O)c4ccnc(C(F)(F)F)c4Cl)ccc3C)c(C)nc2n1` [Example 33, 3-chloro-N-(4-methyl-3-(7-methyl-2-(methylamino)pyrido[2,3-d]pyrimidin-6-yl)phenyl)-2-(trifluoromethyl)isonicotinamide] here?
A: ≤ 10 nM

Q: With `CNc1ncc2cc(-c3cc(NC(=O)N4CCn5cnc(C(F)(F)F)c5C4)ccc3C)c(C)nc2n1` [Example 24, N-(4-methyl-3-(7-methyl-2-(methylamino)pyrido[2,3-d]pyrimidin-6-yl)phenyl)-1-(trifluoromethyl)-5,6-dihydroimidazo[l,5-a]pyrazine-7(8H)-carboxamide] as the molecule, how does the IC50 read?
A: ≤ 10 nM

Q: `Cc1ccc(NC(=O)c2ccnc(C(F)(F)F)c2)cc1-c1cc2cnc(NC3CCN(C)CC3)nc2nc1C` [Example 42, N-(4-methyl-3-(7-methyl-2-((1-methylpiperidin-4-yl)amino)pyrido[2,3-d]pyrimidin-6-yl)phenyl)-2-(trifluoromethyl)isonicotinamide] was tested. Which IC50 did it give?
A: ≤ 10 nM

Q: For `CNc1ncc2cc(-c3cc(NC(=O)N4CC[C@H](OC(F)(F)F)C4)ccc3C)c(C#N)nc2n1` [Example 79], which IC50 is on record?
A: ≤ 10 nM

Q: How did the IC50 turn out when `CNc1ncc2cc(-c3cc(NC(=O)N4CCO[C@H](C(F)(F)F)C4)c(F)cc3C)c(C)nc2n1` [Example 11, (2S)-N-[2-fluoro-4-methyl-5-[7-methyl-2-(methylamino)pyrido[2,3-d]pyrimidin-6-yl]phenyl]-2-(trifluoromethyl)morpholine-4-carboxamide] was run?
A: ≤ 10 nM

Q: With `CNc1ncc2cc(-c3cc(NC(=O)c4cc(C(F)(F)F)ccn4)ccc3C)c(C)nc2n1` [Example 27] as the molecule, how does the IC50 read?
A: ≤ 10 nM

Q: With `Cc1ccc(NC(=O)c2ccnc(C(F)(F)F)c2)cc1-c1cc2cnc(NC(=O)C3CC3)nc2nc1C` [Example 49, N-(3-(2-(cyclopropanecarboxamido)-7-methylpyrido[2,3-d]pyrimidin-6-yl)-4-methylphenyl)-2-(trifluoromethyl)isonicotinamide] as the molecule, how does the IC50 read?
A: ≤ 10 nM

Q: How did the IC50 turn out when `Cc1ccc(NC(=O)c2ccnc(C(F)(F)F)c2)cc1-c1cc2cnc(NCCN3CCOCC3)nc2nc1C` [Example 38, N-(4-methyl-3-(7-methyl-2-((2-morpholinoethyl)amino)pyrido[2,3-d]pyrimidin-6-yl)phenyl)-2-(trifluoromethyl)isonicotinamide] was run?
A: ≤ 10 nM

Q: `CCNc1ncc2cc(-c3cc(NC(=O)c4ccnc(C(F)(F)F)c4)ccc3C)c(C)nc2n1` [Example 35, N-(3-(2-(ethylamino)-7-methylpyrido[2,3-d]pyrimidin-6-yl)-4-methylphenyl)-2-(trifluoromethyl)isonicotinamide] was tested. Which IC50 did it give?
A: ≤ 10 nM

Q: `CNc1ncc2cc(-c3cc(NC(=O)c4ccnc(C(F)(F)F)c4)ccc3C)c(C#N)nc2n1` [Example 72, N-[3-[7-cyano-2-(methylamino)pyrido[2,3-d]pyrimidin-6-yl]-4-methylphenyl]-2-(trifluoromethyl)pyridine-4-carboxamide] was tested. Which IC50 did it give?
A: ≤ 10 nM

Q: How did the IC50 turn out when `CNc1ncc2cc(-c3cc(NC(=O)c4cc[n+]([O-])c(C(F)(F)F)c4)ccc3C)c(C)nc2n1` [Example 76, 4-([4-methyl-3-[7-methyl-2-(methylamino)pyrido[2,3-d]pyrimidin-6-yl]phenyl]carbamoyl)-2-(trifluoromethyl)pyridin-1-ium-1-olate] was run?
A: ≤ 10 nM

Q: `CNc1ncc2cc(-c3cc(NC(=O)N4CC[C@H](OC(F)(F)F)C4)ccc3C)cnc2n1` [Example 56, 3S-N-[4-methyl-3-[2-(methylamino)pyrido[2,3-d]pyrimidin-6-yl]phenyl]-3-(trifluoromethoxy)pyrrolidine-1-carboxamide] was tested. Which IC50 did it give?
A: ≤ 10 nM

Q: Which IC50 does the source give for `CNc1ncc2cc(-c3cc(NC(=O)c4ccnc(C(F)(F)F)c4)c(F)cc3C)c(C)nc2n1` [Example 7, N-[2-fluoro-4-methyl-5-[7-methyl-2-(methylamino)pyrido[2,3-d]pyrimidin-6-yl]phenyl]-2-(trifluoromethyl) pyridine-4-carboxamide] here?
A: ≤ 10 nM

Q: `CNc1ncc2cc(-c3cc(NC(=O)N4CCC5(CCC(F)(F)C5)C4)c(F)cc3C)c(C)nc2n1` (stereo not drawn) [Example 15, 7,7-difluoro-N-(2-fluoro-4-methyl-5-(7-methyl-2-(methylamino)pyrido[2,3-d]pyrimidin-6-yl)phenyl)-2-azaspiro[4.4]nonane-2-carboxamide] was tested. Which IC50 did it give?
A: ≤ 10 nM

Same assay, conditions: read-out: RAF-1 IC50

Q: Which IC50 does the source give for `CNc1ncc2cc(-c3cc(NC(=O)N4CCO[C@H](C(C)(C)C)C4)c(F)cc3C)c(C)nc2n1` [Example 22, (R)-2-(tert-butyl)-N-(2-fluoro-4-methyl-5-(7-methyl-2-(methylamino)pyrido[2,3-d]pyrimidin-6-yl)phenyl)morpholine-4-carboxamide] here?
A: ≤ 10 nM

Q: Which IC50 does the source give for `[2H]C([2H])([2H])Nc1ncc2cc(-c3cc(NC(=O)c4ccnc(C(F)(F)F)c4)ccc3C)c(C([2H])([2H])[2H])nc2n1` [Example 75, N-(4-methyl-3-(7-(methyl-d3)-2-((methyl-d3)amino)pyrido[2,3-d]pyrimidin-6-yl)phenyl)-2-(trifluoromethyl)isonicotinamide] here?
A: ≤ 10 nM

Q: For `[2H]C([2H])([2H])c1nc2nc(NC)ncc2cc1-c1cc(NC(=O)c2ccnc(C(F)(F)F)c2)ccc1C` [Example 74, N-(4-methyl-3-(7-(methyl-d3)-2-(methylamino)pyrido[2,3-d]pyrimidin-6-yl)phenyl)-2-(trifluoromethyl)isonicotinamide], which IC50 is on record?
A: ≤ 10 nM

Q: For `CNc1ncc2cc(-c3cc(NC(=O)c4ccnc(C(F)(F)F)c4)ccc3C)c(OC)nc2n1` [Example 68, N-[3-[7-methoxy-2-(methylamino)pyrido[2,3-d]pyrimidin-6-yl]-4-methylphenyl]-2-(trifluoromethyl)pyridine-4-carboxamide], which IC50 is on record?
A: ≤ 10 nM

Q: Which IC50 does the source give for `CNc1ncc2cc(-c3cc(NC(=O)N4CCO[C@@H](C(C)(C)C)C4)c(F)cc3C)c(C)nc2n1` [Example 23, (S)-2-(tert-butyl)-N-(2-fluoro-4-methyl-5-(7-methyl-2-(methylamino)pyrido[2,3-d]pyrimidin-6-yl)phenyl)morpholine-4-carboxamide] here?
A: ≤ 10 nM
